Data taken from the NIST ThermoML archive (doi:10.1016/j.fluid.2015.04.021).

What was measured:
[1] = Liquid; for viscosity: Falling or rolling sphere viscometry; for mass density: Vibrating tube method
[2] = cn = amount concentration of the nth substance listed, in mol/dm3; conditions: 101.3 kPa, Liquid, Falling or rolling sphere viscometry, c2 = 0

O [water]
[1], 101.3 kPa
Conditions | viscosity [mPa·s]
293.15 K | 1.002
298.15 K | 0.8908
303.15 K | 0.799
308.15 K | 0.722
313.15 K | 0.6564
318.15 K | 0.6009

O [water] + NCCCC[C@H](N)C(=O)[O-].[K+]
[2]
Conditions | viscosity [mPa·s]
298.15 K | 0.8908
303.15 K | 0.799
308.15 K | 0.722
313.15 K | 0.6564
318.15 K | 0.6009

O [water] + O=C([O-])[C@@H]1CCCN1.[K+]
[2]
Conditions | viscosity [mPa·s]
298.15 K | 0.8908
303.15 K | 0.799
308.15 K | 0.722
313.15 K | 0.6564
318.15 K | 0.6009

NCCO [2-aminoethan-1-ol]
[1], 101.33 kPa
Conditions | mass density [kg/m3] | viscosity [mPa·s]
303.15 K | 1007.7 | 14.61
313.15 K | 999.8 | 9.724
323.15 K | 991.7 | 6.807
333.15 K | 983.7 | 4.97
343.15 K | 975.5 | 3.784
